Laboratory results: patent US7456154B2 (priority 2001, dated 2008)

What was measured:
[1] = test system: AChE-R mRNA; assay: In situ hybridization of AChE-R mRNA in rat muscle; format: in vivo; conditions: healthy and EAMG rats
Experimental: (§1) In situ hybridization: Tissues were fixed in 4% paraformaldehyde and cut into 7 μm paraffin embedded sections. Spinal cord sections were deparaffinized, rehydrated using serial ethanol dilutions and permeabilized with proteinase K (10 μg/ml at room temp.). Slides were exposed to 5′ biotinylated, fully 2′-oxymethylated AChE-R or AChE-S-specific 50-mer cRNA probes complementary to human ACHE pseudo-intron 4 or exon 6, respectively [Grisaru et al. (2001) id ibid.]. Hybridization was performed overnight at 52° C. in hybridization mixture containing 10 μg/ml probe, 50 μg/ml yeast tRNA, 50 μg/ml heparin and 50% formamide in 375 mM Na chloride, 37.5 mM Na citrate, pH 4.5. For monkey sections, the probe was constructed according to the human AChE-R sequence; for rat sections, according to the mouse sequence. Slides were washed to remove non-hybridized probe, blocked with 1% skim milk containing 0.01% Tween-20 and 2 mM levamisole, an alkaline phosphatase inhibitor used to suppress non-specific staining and incubate with streptavidin-alkaline phosphatase (Amersham Pharmacia). Fast Red™ substrate (Roche Diagnostics) was used for detection. DAPI staining (Sigma Chemical Co., St. Louis, Mo., USA) served to visualize nuclei. Microscope images were analyzed with Image Pro Plus 4.0 (Media Cybernetics) software. […]

[2] = test system: healthy rats; assay: Electromyography: CMAP ratio in naive (healthy) rats; format: in vivo, rat; conditions: for CMAP ratio (5th vs. 1st amplitude): naive rats, 50 μg/Kg, average ± SEM
Experimental: Electromyography: Rats were anesthetized by i.p. injection of […] pentobarbital, immobilized, and subjected to repetitive sciatic nerve stimulation, using a pair of concentric needle electrodes at 3 Hz. Baseline compound muscle action potential (CMAP) was recorded by a concentric needle electrode placed in the gastrocnemius muscle, following a train of repetitive nerve stimulations at supramaximal intensity. Decrease (percent) in the amplitude of the fifth vs. the first muscle action potential was determined in two sets of repetitive stimulations for each animal. A reduction of 10% or more was considered indicative of neuromuscular transmission dysfunction.
Drug administration: Intravenous injections and blood sampling for anti-AChR antibodies testing were via the right jugular vein under anesthesia. For oral administration, a special needle for oral gavage feeding was used, which is curved with a ball end (Stoelting, Wood Dale Ill.). Mestinon® was administered in a dose of 1 mg/kg/day, and purchased from Hoffmann La-Roche. Basel, Switzerland.

[3] = test system: healthy rats; assay: Treadmill running time of healthy rats; format: in vivo, rat; conditions: 250 μg/Kg
Experimental: Exercise training on treadmill: To establish a clinical measure of neuromuscular performance in EAMG rats, a treadmill assay was performed. Animals were placed on an electrically powered treadmill [Moran et al. (1996) J Therm Biol 21, 171-181] at 25 m/min (a physical effort of moderate intensity) until visibly fatigued. The amount of time the rats were able to run was recorded before and after anti-sense or Mestinon® treatment.

[4] = test system: AChE-S mRNA; assay: In situ hybridization of AChE-S mRNA in monkey spinal cord; format: in vivo, Cynomolgus monkey; conditions: oral 0.15 and 0.50, i.v. 0.50 μg/g/day, 7 days
Experimental: as §1

[5] = test system: Cynomolgus monkeys; assay: 7-day toxicology study of hEN101 in Cynomolgus monkeys; format: in vivo, Cynomolgus monkey
Experimental: This experiment was conducted with six (3 males and 3 females) purpose-bred 15 month-old (young adult) Cynomolgus monkeys, divided in three groups (1, 2 and 3) of one male and one female each. Groups 1 and 2 received hEN101 daily by o.g. for a period of 7 days, at a concentration of 0.15 and 0.50 μg/g/day, respectively. Group 3 received daily i.v. injections of hEN101 for a period of 7 days at a dosage of 0.50 μg/g/day.
Over a 12 hour period, plasma samples were obtained during the second treatment day to investigate the toxicokinetic profile at each dosage. The toxicology study consisted of checking the animals during the 7 days of treatment for gross signs of toxicity by the following parameters: mortality, body weight, food consumption, electrocardiography, blood pressure, hematology (peripheral blood), and blood chemistry. At 7 days the monkeys were sacrificed and examined post-mortem for macroscopic pathology and organ weight. Fixed sections of brain (cerebellum, cerebrum, midbrain, medulla), caecum, colon, duodenum, heart (auricular and ventriclar regions), ileum, jejunum, kidneys (cortex, medulla, papilla regions), liver (two main lobes), lungs (two major lobes, including bronchi), lymph nodes (mandibular and mesenteric), esophagus, rectum, sciatic nerve, skeletal muscle (thigh), spinal cord (transverse and longitudinal sections at cervical level), spleen and stomach (body and antrum) were stained with hematoxylin/eosin to reveal necrosis or cell death.

Row | Substance | AChE-R mRNA labeling in muscle [1] | Effect on CMAP in healthy animals ([2]; i.v., doses 10-500 μg/Kg) | CMAP ratio (5th vs. 1st amplitude) ([2]; intravenous, 0 h) | CMAP ratio (5th vs. 1st amplitude) ([2]; intravenous, 5 h) | CMAP ratio (5th vs. 1st amplitude) ([2]; intravenous, 24 h) | CMAP ratio (5th vs. 1st amplitude) ([2]; oral, 0 h) | CMAP ratio (5th vs. 1st amplitude) ([2]; oral, 1 h) | CMAP ratio (5th vs. 1st amplitude) ([2]; oral, 5 h) | CMAP ratio (5th vs. 1st amplitude) ([2]; oral, 24 h) | Effect on treadmill running of healthy animals [3] | AChE-S mRNA in spinal cord [4] | Post-mortem finding at injection site ([5]; i.v. 0.50 μg/g/day, 7 days) | Animals with slight healing erosions in the body of the stomach post-mortem ([5]; in each group, possibly associated with treatment) | Clinical investigations for toxicity ([5]; o.g. 0.15 or 0.50 μg/g/day, i.v. 0.50 μg/g/day, 7 days)
1 | 5′-CTGCGATATTTTCTTGTACC-3′ (chemistry not given here) [rEN101] | almost to the limit of detection | did not affect CMAP | 1.00 ± 0.0 | 1.00 ± 0.01 | 1.02 ± 0.01 | 1.01 ± 0.01 | 1.0 ± 0.02 | 1.03 ± 0.02 | 1.01 ± 0.00 | not significantly affected |  |  |  | 
2 | 5′-CTGCCACGTTCTCCTGCACC-3′ [hEN101] |  |  |  |  |  |  |  |  |  |  | no apparent reduction | some irritation of the perivascular tissue at the site of intravenous injection | 1 of 2 | no toxicological effects
